From patent publication US5663205A, “Pharmaceutical composition for use in glaucoma treatment” (Senju Pharmaceutical Co. Ltd., priority 1992, dated 1997)

Tests used:
pupil diameter = assay: Test Example 2 (2): pupil diameter, pigmented rabbits; format: in vivo, pigmented rabbits (Dutch belted rabbits); settings: 0.5% aqueous solution (FIG. 4), 0.5 to 6 hours
Method: Forty (40) male pigmented rabbits (Dutch belted rabbits) weighing about 2 kg, after having been confirmed to be free from ocular abnormalities, were bred in a breeding room maintained at a temperature of 24± 4° C. and at a relative humidity of 55± 15%, while they were fed solid food (Labo RG-RO, manufactured by Nihon Nohsan Kogyo K.K.) at a daily rate of 100 g per rabbit and allowed free access to tap water as drinking water. As a test drug, amosulalol hydrochloride was processed into 0.05%, 0.5% and 1.0% aqueous solutions which were used in the test, and 0.5% timolol maleate ophthalmic solution [Timoptol (registered trademark): Ban-yu Pharmaceutical Co.] and physiological saline were used as a positive control drug and a control substance, respectively. (2) Measurement of pupil diameter: With each of the rabbits as used under the above item (1), pupil diameter was measured for both eyes using a micrometer caliper, before instillation and 0.5, 1, 2, 3, 4, and 6 hours after topical application of the respective test drugs and physiological saline, respectively. […] The signs "a" and "c" designate physiological saline, 0.5% aqueous solution of amosulalol hydrochloride, respectively.

[1] = system: Normal Intraocular Pressure; assay: Test Example 3: intraocular pressure, consecutive application for 5 days, pigmented rabbits; format: in vivo; settings: 0.5% aqueous solution
Method: Intraocular Pressure Reducing Activity of Amosulalol Hydrochloride by Consecutive Application for 5 Days on Normal Intraocular Pressure in Pigmented Rabbits
Eight (8) male pigmented rabbits weighing about 2 kg, after having been confirmed to be free from ocular abnormalities, were bred in a breeding room maintained at a temperature of 24± 4° C. and at a relative humidity of 55± 15%, while they were given solid food (Labo RG-RO, manufactured by Nihon Nohsan Kogyo K.K.) at a daily rate of 100 g per rabbit and allowed free access to tap water as drinking water.
For the 8 pigmented rabbits bred by the above procedure, 50 μl of 0.5% aqueous solution of amosulalol hydrochloride was applied to one eye, with 50 μl of physiological saline being given topically to the other. Intraocular pressure was measured before the first instillation and at regular intervals of 1 hour up to 8 hours after application on Days 1 and 5, and before the first instillation and 2 or 3 hours after application on Days 2, 3 and 4, respectively, with intraocular pressure additionally being measured 24 hours after the first instillation on Day 5.
The signs "a" and "c" designate physiological saline, 0.5% aqueous solution of amosulalol hydrochloride, respectively.

[2] = Test Example 6: freeze-thaw test, precipitation of crystals; format: physicochemical; settings: 0.5% aqueous solution (pH 5.5), left standing at room temperature
Method: Investigation on the Processing of Amosulalol Hydrochloride into Ophthalmic Solution: Freeze-Thaw Test (Investigation on a Stabilizing Agent for the Ophthalmic Solution of Amosulalol Hydrochloride)
Consequently, investigation was conducted on a stabilizing agent intended for use in the case of such freezing.
0.5% aqueous solution of amosulalol hydrochloride (pH 5.5), after being admixed with each of the stabilizing agents (Nos. 1 to 5) as described in Table 1 shown below, was filled into a glass ampoule of 5 ml capacity, frozen at -30° C. and left standing at room temperature to conduct inspection for the presence of crystals in it.

[3] = Stability of aqueous solution against heat and light; format: physicochemical
[4] = Test Example 7 (2)(a),(b): general conditions and body weight, 28 days instillation; format: in vivo, Japanese white rabbits; settings: 1% and 0.5% ophthalmic solutions, 4 times a day
Method: (2) Ocular local toxicity test in rabbits of 1.0% and 0.5% ophthalmic solutions of amosulalol hydrochloride by consecutive instillation for 28 days: With 15 male Japanese white rabbits divided into 3 groups each consisting of 5 rabbits, 1.0% and 0.5% ophthalmic solutions of amosulalol hydrochloride as well as physiological saline as a control were applied in one drop (0.05 ml) per time to the right eye of each rabbit alone, four times a day at a regular interval of 2.5 hours, for 28 days consecutively with the left eye being left untreated. (a) General conditions; Observation was made on the […] for general conditions once a week. (b) Body weight measurement; Body weight was measured once a week.

[5] = system: corneal epithelial and endothelial cells; assay: Test Example 7 (2)(e): scanning electron microscope evaluation of corneal epithelial and endothelial cells; format: in vivo, Japanese white rabbits; settings: 1% and 0.5% ophthalmic solutions, 28 days
Method: (2) Ocular local toxicity test in rabbits of 1.0% and 0.5% ophthalmic solutions of amosulalol hydrochloride by consecutive instillation for 28 days: With 15 male Japanese white rabbits divided into 3 groups each consisting of 5 rabbits, 1.0% and 0.5% ophthalmic solutions of amosulalol hydrochloride as well as physiological saline as a control were applied in one drop (0.05 ml) per time to the right eye of each rabbit alone, four times a day at a regular interval of 2.5 hours, for 28 days consecutively with the left eye being left untreated. (e) Evaluation with a scanning electron microscope of corneal epithelial and endothelial cells; After completion of the instillation of 1.0% and 0.5% ophthalmic solutions of amosulalol hydrochloride, morphological observation was done on corneal epithelial and endothelial cells in 3 eyes each of the two groups.

eyeball = assay: Test Example 7 (2)(f): optical microscope evaluation of a sagittal section of the eyeball; format: in vivo, Japanese white rabbits; settings: 1% and 0.5% ophthalmic solutions, 28 days
Method: (2) Ocular local toxicity test in rabbits of 1.0% and 0.5% ophthalmic solutions of amosulalol hydrochloride by consecutive instillation for 28 days:
With 15 male Japanese white rabbits divided into 3 groups each consisting of 5 rabbits, 1.0% and 0.5% ophthalmic solutions of amosulalol hydrochloride as well as physiological saline as a control were applied in one drop (0.05 ml) per time to the right eye of each rabbit alone, four times a day at a regular interval of 2.5 hours, for 28 days consecutively with the left eye being left untreated.
(f) Evaluation with an optical microscope of a sagittal section of the eyeball;
After completion of the instillation of 1.0% and 0.5% ophthalmic solutions of amosulalol hydrochloride, specimens for optical microscopy were prepared each having a sagittal section of the eyeball from 2 eyes each of the two groups to conduct microscopic examination of the eyelid, conjunctiva, cornea, anterior segment, iris, crystalline lens vitreous body, retinochoroid membrane, screla and optic nerve.

conjunctiva = assay: Test Example 2: conjunctival hyperemia, pigmented rabbits; format: in vivo, pigmented rabbits (Dutch belted rabbits); settings: concentrations of less than 0.5%

## COc1ccccc1OCCNCC(O)c1ccc(C)c(S(N)(=O)=O)c1.Cl (stereo not shown) [amosulalol hydrochloride, 5-[1-hydroxy-2-[2-(2-methoxyphenoxy)ethylamino]ethyl]-2-methylbenzenesulfonamide hydrochloride]
Pupil diameter
  change in pupil diameter: no significant change in the pupil diameter
[1]; Day 1
  return of intraocular pressure to the initial value (time): 24 h
[1]; Day 1, 2 hours after the first instillation
  maximum drop in intraocular pressure: 4.8 mmHg
[1]; Day 1, second instillation 4 hours later
  further decrease in intraocular pressure by second instillation: not found to bring about any further decrease in intraocular pressure
[1]; Day 2, 2 hours after instillation
  decrease in intraocular pressure: significant decrease in intraocular pressure
[1]; Day 3
  decrease in intraocular pressure: no significant intraocular pressure drop
[1]; Day 4
  decrease in intraocular pressure: significant decrease in intraocular pressure
[1]; Day 5, any measuring time
  decrease in intraocular pressure: almost the same degree of intraocular pressure decrease as on Day 1
[1]; three times a day for 5 days
  tachyphylaxis: free from tachyphylaxis
[2]
  dissolution of crystals after freezing: did not allow the crystals to dissolve
[3]
  stability against heat and light: stable
[4]
  body weight measurement: no abnormalities
  general conditions: no abnormalities
[5]
  scanning electron microscope evaluation of corneal epithelial and endothelial cells: no abnormalities
eyeball
  optical microscope evaluation of a sagittal section of the eyeball: no abnormalities
conjunctiva
  conjunctival hyperemia: merely a slight degree of conjunctival hyperemia
